For ten compounds, Activity results are on record in ChEMBL document CHEMBL4616622, “HSP70 induction by bleomycin metal core analogs” (Bioorg Med Chem Lett, 2020).

Active and inactive are the calls of the source. The calls are words filed in the database; no cut-off is given here. A value given as a limit tells only on which side of the number the result lay.

In data set [1] the test system is PC-12. Kind of data set: Induction of HSP70 expression in rat PC12 cells at 10 to 20 uM incubated for 4 hrs by Western blot analysis. The format is functional, cell-based. (Immunoblotting shows a protein as a band on a membrane.)
Data set [2] deals with PC-12. Kind of data set: Induction of HSP70 expression in rat PC12 cells at 7.5 uM incubated for 4 hrs by Western blot analysis. The format is functional, cell-based.
In data set [3] the test system is PC-12. Kind of data set: Induction of HSP70 expression in rat PC12 cells at 10 uM by Western blot analysis. Format: functional, cell-based. The conditions noted are these: TDE = time-dependent effect.
Data set [4] concerns PC-12. Kind of data set: Induction of HSP70 expression in rat PC12 cells at 10 uM incubated for 24 hrs by Western blot analysis. Format: functional, cell-based.
For data set [5], the system named is PC-12. Kind of data set: Induction of HSP70 in rat PC12 cells assessed as upregulation of HSP70 mRNA at 10 uM incubated for 4 hrs by qRT-PCR analysis. Format: cell-based.
Data set [6] relates to PC-12. Put plainly: Cytotoxicity against rat PC12 cells assessed as reduction in cell viability at 30 uM incubated for 1 day by MTT assay relative to control. Format: cell-based. Conditions: pc-12, 24 h. Background: Formazan colour is commonly taken as a measure of viable cells.
In data set [7] the test system is PC-12. Kind of data set: Induction of HSP70 expression in rat PC12 cells at 10 uM incubated for 4 hrs by Western blot analysis. Format: functional, cell-based.
For data set [8], the system named is PC-12. Kind of data set: Induction of HSP70 expression in rat PC12 cells at 10 uM incubated for 4 hrs in presence of human betaNGF by Western blot analysis. Format: functional, cell-based.
Data set [9] has as its system PC-12. Kind of data set: Induction of HSP70 expression in rat PC12 cells at 5 to 30 uM incubated for 4 hrs by Western blot analysis. Format: functional, cell-based.

On to `COC(=O)[C@H](Cc1c[nH]cn1)NCc1cc(N(C)C)cc(CN[C@@H](Cc2cn(C(c3ccccc3)(c3ccccc3)c3ccccc3)cn2)C(=O)OC)n1`, for which the result in the data set with PC-12 [1], in the data set with PC-12 [4], with PC-12 [5], in the data set on PC-12 [7] and in the data set with PC-12 [8] was Active. The outcome with PC-12 [2] was inactive. For the same compound, the Activity entry in the data set on PC-12 [3] was “Tde”; in the data set with PC-12 [6] it was greater than 50%.
As for `COC(=O)[C@H](Cc1cn(C)cn1)NCc1cc(N(C)C)cc(CN[C@@H](Cc2cn(C)cn2)C(=O)OC)n1`, the outcome in the data set on PC-12 [7] was inactive.
`COC(=O)[C@H](Cc1c[nH]cn1)NCc1cccc(CN[C@@H](Cc2cn(C(c3ccccc3)(c3ccccc3)c3ccccc3)cn2)C(=O)OC)c1`: the result with PC-12 [7] was inactive.
On to TEPRENONE, for which the outcome with PC-12 [7] was inactive.
In the case of `COC(=O)[C@H](Cc1c[nH]cn1)NCc1cc(N(C)C)cc(CN[C@@H](Cc2cn(Cc3ccccc3)cn2)C(=O)OC)n1`, the result in the data set with PC-12 [7] was inactive.
Consider `COC(=O)[C@H](Cc1cn(C(c2ccccc2)(c2ccccc2)c2ccccc2)cn1)NCc1cc(N(C)C)cc(CN[C@@H](Cc2cn(C(c3ccccc3)(c3ccccc3)c3ccccc3)cn2)C(=O)OC)n1`, for which, in the data set with PC-12 [7], the result was inactive.
The same measure, in the same setting: for `COC(=O)[C@H](Cc1cn(Cc2ccccc2)cn1)NCc1cc(N(C)C)cc(CN[C@@H](Cc2cn(Cc3ccccc3)cn2)C(=O)OC)n1` the value was “inactive”.
Consider `COC(=O)[C@H](Cc1c[nH]cn1)NCc1cccc(CN[C@@H](Cc2cn(C(c3ccccc3)(c3ccccc3)c3ccccc3)cn2)C(=O)OC)n1`, for which the result in the data set with PC-12 [7] and in the data set with PC-12 [8] was Active.
As for BLEOMYCIN, the outcome with PC-12 [9] and in the data set on PC-12 [7] was inactive.
`COC(=O)[C@H](Cc1c[nH]cn1)NCc1cc(N(C)C)cc(CN[C@@H](Cc2cn(C)cn2)C(=O)OC)n1`: the result with PC-12 [7] was inactive.
